Measurements published in patent US20240350476A1 (priority 2023, published 2024).

Tests used:
[1] = Method: Six volunteer subjects who are regular users of nicotine pouches containing 8 mg of nicotine were each administered an oral pouch of the disclosure containing 3 mg of 6-methylnicotine. Each subject used the 6-methylnicotine pouch in the same manner as a nicotine pouch, by placing the pouch inside the mouth and adjacent to the lip and gum.
[2] = oral dissolvable film containing 1.6 mg of 6-methylnicotine, placed inside the cheek, compared to a film containing 2 mg of nicotine; four volunteer subjects, self-reported
Method: Four volunteer subjects were provided with an oral dissolvable film according to the disclosure containing 1.6 mg of 6-methylnicotine and an oral dissolvable film containing 2 mg of nicotine. Each subject placed the nicotine strip against the inside of their cheek and noted their physiological response. Subjects abstained from nicotine or tobacco usage for 1 hour after consuming the nicotine strip, then placed the 6-methylnicotine strip according to the disclosure against the inside of their cheek and noted their physiological response.

[3] = measured approximately 1 minute after placing the pouch adjacent to the gum line; five blindfolded volunteer subjects, one-hour break between tests
Method: Five volunteer subjects compared the effects of nicotine consumption and 6-methylnicotine consumption on blood pressure Subjects were blindfolded and had their blood pressure measured before using a pouch (to provide a baseline blood pressure) and re-measured approximately 1 minute after placing a nicotine pouch or a 6-methylnicotine pouch adjacent to the gum line. All subjects performed the test with a nicotine pouch and with a 6-methylnicotine pouch on the same day with a one-hour break between the tests.

Which results are given for `Cc1ccc([C@@H]2CCCN2C)cn1` (stereo in doubt) [6-methylnicotine]?
physiological effect, such as a "head rush" experienced during pouch usage ([1]; in vivo, po): more potent physiological effect; desire to use nicotine- or tobacco-based products after use of the pouch ([1]; oral pouch containing 3 mg of 6-methylnicotine, six volunteer subjects who regularly use 8 mg nicotine pouches, self-reported): zero desire to use nicotine- or tobacco-based products; physiological response (as a perceived "head rush") [2]: stronger physiological response; blood pressure following usage of a 6-methylnicotine pouch versus a nicotine pouch [3]: No significant difference
